Assay results: patent US20100075957A1, “AMINODIHYDROTHIAZINE DERIVATIVES SUBSTITUTED WITH A CYCLIC GROUP” (SHIONOGI & CO., LTD., priority 2007, published 2010)

Biological target: T1, Recombinant human BACE-1 (Homo sapiens, UniProt P56817)
T1 construct: purchased R&D Systems
Test: Assay of β-secretase-inhibiting activity;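 note: substrate is a peptide carrying biotin and europium cryptate, after the enzyme reaction, Streptavidin-XL665 is added and incubated 1 h at 30 °C before fluorescence reading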
Type: biochemical
Conditions: Recombinant human BACE-1 7.4 nM, substrate peptide 18 nM, pH 5.0, 30° C., 3 hours; Table 141; read-out: IC50

T1 sequence (P56817 46-501): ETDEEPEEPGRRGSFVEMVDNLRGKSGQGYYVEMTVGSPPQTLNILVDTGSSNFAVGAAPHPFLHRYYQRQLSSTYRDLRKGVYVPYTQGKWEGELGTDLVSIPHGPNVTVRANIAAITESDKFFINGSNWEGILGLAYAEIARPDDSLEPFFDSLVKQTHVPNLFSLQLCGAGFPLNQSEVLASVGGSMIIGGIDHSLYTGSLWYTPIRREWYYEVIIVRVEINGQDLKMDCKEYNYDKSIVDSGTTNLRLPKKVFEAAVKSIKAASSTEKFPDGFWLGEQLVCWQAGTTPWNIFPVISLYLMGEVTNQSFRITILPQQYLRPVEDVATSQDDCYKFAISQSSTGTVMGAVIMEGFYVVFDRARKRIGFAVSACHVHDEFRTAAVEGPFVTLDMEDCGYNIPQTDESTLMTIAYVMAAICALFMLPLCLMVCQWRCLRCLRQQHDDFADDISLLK

| SMILES | IC50 [µM] |
| --- | --- |
| CC1(C)C[C@@](C)(c2cc(NC(=O)c3ncccc3F)ccn2)N=C(N)S1 [Compound 655] | 0.01 |
| C[C@]1(c2cc(NC(=O)c3ncccc3F)ccc2F)N=C(N)SCC1(F)F [Compound 660] | 0.11 |
| Cc1cnc(C(=O)Nc2ccc(F)c([C@@]3(C)N=C(N)SCC3(F)F)c2)cn1 [Compound 662] | 0.17 |
| Cc1nc(C(=O)Nc2ccc(F)c([C@@]3(C)N=C(N)SCC3(F)F)c2)co1 [Compound 664] | 0.02 |
| CCCCc1ccc(C(=O)Nc2ccc(F)c([C@@]3(C)N=C(N)SCC3(F)F)c2)nc1 [Compound 665] | 0.87 |
| COc1nc(C(=O)Nc2ccc(F)c([C@]3(C)CCSC(N)=N3)c2)co1 [Compound 667] | 0.02 |
| C[C@@]1(c2cc(Nc3ncc4ccccn34)ccc2F)CCSC(N)=N1 [Compound 668] | 0.51 |
| C[C@@]1(c2cc(NC(=O)c3coc(C(F)(F)F)n3)ccc2F)CCSC(N)=N1 [Compound 669] | 0.01 |
| Cc1cnc(C(=O)Nc2ccc(F)c([C@@]3(C)N=C(N)SCC34CC4)c2)cn1 [Compound 674] | 0.01 |
| COc1ncc(NC(=O)c2cnc(C)cn2)cc1[C@]1(C)CCSC(N)=N1 [Compound 680] | 0.05 |

More lines, now with the values ahead:

| IC50 [µM] | SMILES |
| --- | --- |
| 0.04 | COc1cnc(C(=O)Nc2ccc(F)c([C@@]3(C)N=C(N)SCC3=O)c2)cn1 [Compound 689] |
| 0.16 | C[C@@]1(c2cc(NC(=O)c3cnc(NCC(F)(F)F)cn3)ccc2F)CCSC(N)=N1 [Compound 702] |

Same assay, conditions: Recombinant human BACE-1 7.4 nM, substrate peptide 18 nM, pH 5.0, 30° C., 3 hours; time-resolved fluorescence ratio 665/620; read-out: IC50 values (50% inhibitory concentration against the enzymatic activity)

| SMILES | IC50 [µM] |
| --- | --- |
| Cc1cnc(C(=O)Nc2ccnc([C@]3(C)CC(C)(C)SC(N)=N3)c2)cn1 [Compound 653] | ≤ 1 |
| CC1(C)C[C@@](C)(c2cc(NC(=O)c3ncc(C(F)(F)F)cc3Cl)ccn2)N=C(N)S1 [Compound 656] | ≤ 1 |
| C#CCOc1cnc(C(=O)Nc2ccnc([C@]3(C)CC(C)(C)SC(N)=N3)c2)cn1 [Compound 657] | ≤ 1 |
| CC1(C)C[C@@](C)(c2cc(NC(=O)c3cnc(OCCF)cn3)ccn2)N=C(N)S1 [Compound 658] | ≤ 1 |
| C#CCOc1cnc(C(=O)Nc2ccnc([C@]3(C)CCSC(N)=N3)c2)cn1 [Compound 659] | ≤ 1 |
| CC1(C)CSC(N)=N[C@]1(C)c1cc(NC(=O)c2ncccc2F)ccc1F [Compound 661] | ≤ 1 |
| C[C@@]1(c2cc(NC(=O)c3cnc4ccccc4n3)ccc2F)CCSC(N)=N1 [Compound 666] | ≤ 1 |
| CCc1nc(C(=O)Nc2ccc(F)c([C@]3(C)CCSC(N)=N3)c2)co1 [Compound 670] | ≤ 1 |
| C[C@@]1(c2cc(NC(=O)c3cnc(OCC4CCO4)cn3)ccc2F)CCSC(N)=N1 (stereo partly shown) [Compound 672] | ≤ 1 |
| COc1cnc(C(=O)Nc2ccc(F)c([C@@]3(C)N=C(N)SCC3(F)F)c2)cn1 [Compound 673] | ≤ 1 |
| COc1cnc(C(=O)Nc2ccc(F)c([C@@]3(C)N=C(N)SCC34CC4)c2)cn1 [Compound 675] | ≤ 1 |
| C#CCOc1cnc(C(=O)Nc2ccc(F)c([C@@]3(C)N=C(N)SCC34CC4)c2)cn1 [Compound 676] | ≤ 1 |
| C[C@@]1(c2cc(NC(=O)c3ncc(Cl)cc3Cl)ccn2)CCSC(N)=N1 [Compound 677] | ≤ 1 |
| C[C@@]1(c2cc(NC(=O)c3ncc(C(F)(F)F)cc3Cl)ccn2)CCSC(N)=N1 [Compound 678] | ≤ 1 |
| COc1cnc(C(=O)Nc2ccnc([C@]3(C)CCSC(N)=N3)c2)c(C)c1 [Compound 679] | ≤ 1 |
| COc1cnc(C(=O)Nc2ccc(F)c([C@@]3(C)N=C(N)SC[C@@H]3OCc3ccccc3)c2)cn1 [Compound 683] | ≤ 1 |
| COc1cnc(C(=O)Nc2ccc(F)c([C@@]3(C)N=C(N)SC[C@H]3OCc3ccccc3)c2)cn1 [Compound 684] | ≤ 1 |
| COc1cnc(C(=O)Nc2ccnc([C@]3(C)CC(C)(C)SC(N)=N3)c2)c(C)c1 [Compound 685] | ≤ 1 |
| CC1(C)C[C@@](C)(c2cc(NC(=O)c3ncc(Cl)cc3Cl)ccn2)N=C(N)S1 [Compound 686] | ≤ 1 |

More lines, now with the values ahead:

| IC50 [µM] | SMILES |
| --- | --- |
| ≤ 1 | C[C@]1(c2cc(NC(=O)c3ncc(Cl)cc3Cl)ccc2F)N=C(N)SCC1=O [Compound 687] |
| ≤ 1 | COc1cnc(C(=O)Nc2ccnc([C@]3(C)CC(C)(C)SC(N)=N3)c2)c(N)n1 [Compound 688] |
| ≤ 1 | C[C@@]1(c2cc(NC(=O)c3ncc(Cl)cc3Cl)ccc2F)CCSC(N)=N1 [Compound 690] |
| ≤ 1 | COc1cnc(C(=O)Nc2ccnc([C@]3(C)CCSC(N)=N3)c2)c(N)n1 [Compound 691] |
| ≤ 1 | C#CCOc1cnc(C(=O)Nc2ccc(F)c([C@]3(C)CC(C)(C)SC(N)=N3)c2)cn1 [Compound 692] |
| ≤ 1 | C#CCOc1cnc(C(=O)Nc2cccc([C@]3(C)CC(C)(C)SC(N)=N3)c2)cn1 [Compound 693] |
| ≤ 1 | COc1cnc(C(=O)Nc2cccc([C@]3(C)CC(C)(C)SC(N)=N3)c2)cn1 [Compound 694] |
| ≤ 1 | CC#CCOc1cnc(C(=O)Nc2cccc([C@]3(C)CC(C)(C)SC(N)=N3)c2)cn1 [Compound 695] |
| ≤ 1 | CC1(C)C[C@@](C)(c2cc(NC(=O)c3ccc(C#N)cn3)ccn2)N=C(N)S1 [Compound 696] |
| ≤ 1 | C[C@@]1(c2cc(NC(=O)c3cn4cc(C#N)nc4cn3)ccc2F)CCSC(N)=N1 [Compound 697] |
| ≤ 1 | C#Cc1cn2cc(C(=O)Nc3ccc(F)c([C@]4(C)CCSC(N)=N4)c3)ncc2n1 [Compound 698] |
| ≤ 1 | C[C@@]1(c2cc(NC(=O)c3cn4cc(C#N)nc4cn3)ccn2)CCSC(N)=N1 [Compound 699] |
| ≤ 1 | C#Cc1cn2cc(C(=O)Nc3ccnc([C@]4(C)CCSC(N)=N4)c3)ncc2n1 [Compound 700] |
| ≤ 1 | C[C@@]1(c2cc(NC(=O)c3cnc(NCC#N)cn3)ccc2F)CCSC(N)=N1 [Compound 701] |
| ≤ 1 | C[C@@]1(c2cc(NC(=O)c3cnc(NCC(F)(F)F)cn3)ccc2F)CCSC(N)=N1 [Compound 702] |
